Columns and labels:
[1] = Apparent pKa of C17HC in EPC liposomes before and after insertion of PEG-DSPE; type: physicochemical
Experimental: (§1) More generally, and as noted above, the method of microwave irradiation can also be used to insert a lipid-polymer (“lipopolymer”), that is a lipopolymer lacking any ligand, into a pre-formed lipid structure, such as liposomes. This general concept was illustrated in another study, described in Example 4, where liposomes having a lipid bilayer of egg phosphatidylcholine and including a fluorescent label were incubated with a micellar suspension of the lipopolymer DSPE-PEG. Two studies were done, using two different fluorescent labels, shown in FIGS. 4A-4B, incorporated into the liposome lipid bilayers. […] A small amount of one of the fluorescent lipidic labels was included in the lipids during formation of the liposomes.
(§2) Liposomes comprised of egg phosphatidylcholine (EPC) and labeled with a pH-sensitive probe, 7-heptadecyl-4-hydroxycoumarin (C17HC) (FIG. 4A) or 1,2-dioleoyl-sn-glycero-3-phosphoethanolamine (DOPE-HC) (FIG. 4B), were prepared by thin film hydration followed by down sizing using extrusion. Briefly, EPC and one of the pH-sensitive probes were dissolved in an organic solvent in a round-bottomed flask. The solvent was removed by rotary evaporation to form a thin lipid film that was hydrated with an aqueous buffer to form multilamellar liposomes. The liposome suspension was sized by extrusion through polycarbonate membranes to an average diameter of 100 nm.
(§3) A conjugate of DSPE-PEG (PEG MW 2000 Daltons) was obtained commercially. A micellar suspension of the DSPE-PEG conjugate was mixed with a suspension of the labeled-EPC liposomes were incubated for 90 seconds in the presence of microwave irradiation in a conventional microwave oven operated at 60% power (Spectra, 850 W capacity). The extent of conjugate insertion was determined by the shift in the apparent pKa of HC moiety.
With respect to the liposomes labeled with C17HC, the apparent pKa of C17HC was calculated from the change of the ratio of excitation wavelengths 380/330 (emission wavelength 450 nm) as a function of bulk pH (Zuidam and Barenholz, Biochim Biophys Acta, 1329(2):211-22 (1997)). Fluorescence was measured using an LS-50B luminescence spectrometer (Perkin Elmer, Norwalk, Conn.). As a comparative reference, the insertion of DSPE-PEG into the same liposomes at room temperature was also measured.

[2] = Apparent pKa of DOPE-HC in EPC liposomes before and after insertion of PEG-DSPE; type: physicochemical
Experimental: as §1
The DOPE-HC-labeled egg PC liposomes were incubated with DSPE-PEG (MW 2000 Daltons) conjugates in the presence of microwave irradiation for 90 seconds. The extent of lipopolymer insertion was calculated from the apparent pKa, as described in Example 4.
Also in this study, a sample of the EPC liposomes was combined with free polyethylene glycol (PEG, MW 2000 Daltons) and exposed for 90 seconds to microwave irradiation in the microwave oven at 60% capacity (850 W total capacity). No insertion of free PEG (i.e., PEG lacking a lipidic or hydrophobic portion) into liposomes was observed.
as §2, §3
With respect to the liposomes labeled with DOPE-HC, the apparent pKa of DOPE-HC was calculated from the change of the ratio of excitation wavelengths 370/408 (emission wavelength 480 nm) as a function of bulk pH. Fluorescence was measured using an LS-50B luminescence spectrometer (Perkin Elmer, Norwalk, Conn.) immediately after exposure of microwave irradiation and 48 hours after exposure.

[3] = EPC with PEG-DSPE (90 sec in MW) after 48 hours
[4] = EPC with PEG-DSPE (90 sec in MW) immediately

| apparent pKa [1, 3] | apparent pKa [1, 4] | apparent pKa ([1]; EPC with PEG-DSPE (5 hours at RT)) | apparent pKa ([1]; EPC with PEG-DSPE (5 hours at RT) after 48 hours) | apparent pKa ([1]; EPC without PEG-DSPE) | apparent pKa ([2]; EPC with PEG (90 sec in MW) after 48 hours) | apparent pKa ([2]; EPC with PEG (90 sec in MW) immediately) | apparent pKa [2, 3] | apparent pKa [2, 4] | apparent pKa ([2]; EPC without PEG-DSPE or 2000PEG, after 48 hours) | apparent pKa ([2]; EPC without PEG-DSPE or PEG) | Compound |
| --- | --- | --- | --- | --- | --- | --- | --- | --- | --- | --- | --- |
| 10.28 | 9.98 | 10.13 | 10.14 | 9.41 |  |  |  |  |  |  | CCCCCCCCCCCCCCCCCc1ccc2c(O)cc(=O)oc2c1 [C17HC, 7-heptadecyl-4-hydroxycoumarin] |
|  |  |  |  |  | 9.08 | 9.09 | 9.38 | 9.26 | 9.28 | 9.12 | CCCCCCCC/C=C\CCCCCCCC(=O)OC[C@H](COP(=O)(O)OCCN)OC(=O)CCCCCCC/C=C\CCCCCCCC [DOPE-HC, 1,2-dioleoyl-sn-glycero-3-phosphoethanolamine] |

— patent publication US7985417B2, “Method of lipid structure preparation” (Yissum Research Development Company of the Hebrew …, priority 2004, dated 2011)
